Experimental data as given in patent US20090069320A1, “Substituted 4-Amino-Quinazoline Compounds with Metabotropic Glutamate Receptor Regulating Activity and Uses Thereof” (Gruenenthal GmbH, priority 2006, published 2009).

Molecular target: T1, mGluR5 receptor (Sus scrofa, UniProt I3LUI7)
T1 construct: 450 μg of protein from brain homogenate with 5 nM ^3[H]-MPEP; from tissue; host or cells: pig brain halves without medulla, cerebellum and pons
Assay: [3H]-MPEP mGluR5 receptor binding assay (pig brain homogenate)
Details: 5 nM [3H]-MPEP; for inhibition at 10 µM / % Inhibition of mGluR5 Receptor (pig) [^3H]-MPEP Bond at 10 μM: 10 μM compound; for inhibition at 10 µM: read-out: % Inhibition of mGluR5 Receptor (pig) [^3H]-MPEP Bond at 10 μM
Outline: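 Radioligand displacement of 5 nM [3H]-MPEP from pig brain homogenate (450 μg protein; medulla, cerebellum and pons removed) in 20 mM Hepes pH 8.0. Compounds were tested at 10 μM, incubated 60 min at room temperature, then filtered and counted by scintillation. Non-specific binding was defined with 10 μM MPEP.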

T1 sequence (I3LUI7 19-1212): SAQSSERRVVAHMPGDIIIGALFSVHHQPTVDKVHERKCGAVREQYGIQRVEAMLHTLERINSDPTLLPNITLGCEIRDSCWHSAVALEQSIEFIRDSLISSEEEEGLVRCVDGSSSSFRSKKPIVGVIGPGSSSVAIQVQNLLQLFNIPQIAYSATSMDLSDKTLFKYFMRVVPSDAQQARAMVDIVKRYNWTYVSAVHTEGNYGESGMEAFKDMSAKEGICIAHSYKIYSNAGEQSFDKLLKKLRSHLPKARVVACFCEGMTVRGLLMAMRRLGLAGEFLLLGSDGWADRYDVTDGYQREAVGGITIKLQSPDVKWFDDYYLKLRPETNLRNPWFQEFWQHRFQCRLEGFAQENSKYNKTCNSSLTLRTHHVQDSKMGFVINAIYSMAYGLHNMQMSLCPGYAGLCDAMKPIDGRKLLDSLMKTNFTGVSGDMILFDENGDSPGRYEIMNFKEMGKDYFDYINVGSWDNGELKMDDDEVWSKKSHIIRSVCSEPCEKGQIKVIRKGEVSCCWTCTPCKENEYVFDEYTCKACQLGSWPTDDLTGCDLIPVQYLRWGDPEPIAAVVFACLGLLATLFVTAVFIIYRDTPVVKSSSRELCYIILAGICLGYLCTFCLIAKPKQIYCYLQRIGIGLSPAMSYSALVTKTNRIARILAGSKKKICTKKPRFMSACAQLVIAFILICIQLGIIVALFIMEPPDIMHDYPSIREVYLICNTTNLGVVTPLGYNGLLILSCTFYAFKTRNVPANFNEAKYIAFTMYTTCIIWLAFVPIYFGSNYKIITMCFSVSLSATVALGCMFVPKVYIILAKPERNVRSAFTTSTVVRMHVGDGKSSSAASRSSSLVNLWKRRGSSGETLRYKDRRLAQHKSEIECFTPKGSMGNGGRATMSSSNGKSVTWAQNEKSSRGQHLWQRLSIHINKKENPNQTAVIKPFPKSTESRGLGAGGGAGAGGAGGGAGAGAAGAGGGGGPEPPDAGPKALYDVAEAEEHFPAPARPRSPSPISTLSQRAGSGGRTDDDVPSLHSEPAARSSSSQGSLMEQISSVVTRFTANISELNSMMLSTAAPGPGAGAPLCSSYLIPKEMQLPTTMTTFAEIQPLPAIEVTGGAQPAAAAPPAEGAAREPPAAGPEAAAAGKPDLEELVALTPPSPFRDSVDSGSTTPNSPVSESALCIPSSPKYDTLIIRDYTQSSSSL

SMILES | inhibition at 10 µM | also measured
Cc1cc2ncnc(NC3CC3)c2cc1-c1cccc(CN(C(=O)c2ccc(C(F)(F)F)cc2F)C2CC2)c1 [Example 668, N-cyclopropyl-N-(3-(4-(cyclopropylamino)-7-methylquinazolin-6-yl)benzyl)-2-fluoro-4-(trifluoromethyl)benzamide] | 88% | –
Cc1cc2ncnc(NC3CC3)c2cc1-c1cccc(CN(C(=O)CCc2ccccc2)C2CC2)c1 [Example 669, N-cyclopropyl-N-(3-(4-(cyclopropylamino)-7-methylquinazolin-6-yl)benzyl)-3-phenylpropanamide] | 77% | –
O=C(Cc1ccccc1)N(Cc1cccc(-c2cc(F)c3ncnc(NC4CC4)c3c2)c1)C1CC1 [Example 670, N-cyclopropyl-N-(3-(4-(cyclopropylamino)-8-fluoroquinazolin-6-yl)benzyl)-2-phenylacetamide] | 79% | –
CNc1ncnc2ccc(-c3cccc(CN(C(=O)c4ccno4)c4ccccc4F)c3)cc12 [Example 671, N-(2-fluorophenyl)-N-(3-(4-(methylamino)quinazolin-6-yl)benzyl)isoxazole-5-carboxamide] | 40% | –
Cc1cc2ncnc(NC3CC3)c2cc1-c1cccc(CN(C2CC2)S(=O)(=O)c2c(F)c(F)c(F)c(F)c2F)c1 [Example 675, N-cyclopropyl-N-(3-(4-(cyclopropylamino)-7-methylquinazolin-6-yl)benzyl)-2,3,4,5,6-pentafluorobenzole sulfonamide] | – | % Inhibition of mGluR5 Receptor (pig) [^3H]-MPEP Bond at 10 μM: 48%
Cc1cc2ncnc(NC3CC3)c2cc1-c1cccc(CN(C(=O)c2cccc(C(F)(F)F)c2)C2CC2)c1 [Example 676, N-cyclopropyl-N-(3-(4-(cyclopropylamino)-7-methylquinazolin-6-yl)benzyl)-3-(trifluoromethyl)benzamide] | 75% | –
O=C(c1ccco1)N(Cc1cccc(-c2cc(F)c3ncnc(NC4CC4)c3c2)c1)C1CC1 [Example 677, N-cyclopropyl-N-(3-(4-(cyclopropylamino)-8-fluoroquinazolin-6-yl)benzyl)furan-2-carboxamide] | 93% | –
CS(=O)(=O)N(Cc1cccc(-c2cc(F)c3ncnc(NC4CC4)c3c2)c1)C1CC1 [Example 678, N-cyclopropyl-N-(3-(4-(cyclopropylamino)-8-fluoroquinazolin-6-yl)benzyl)methane sulfonamide] | – | IC50 (read-out: IC50 mGluR5 Receptor (pig) [^3H]-MPEP Bond): 220 nM
Cc1cc2ncnc(NC3CC3)c2cc1-c1cccc(CN(C2CC2)S(=O)(=O)c2cccc3cccnc23)c1 [Example 683, N-cyclopropyl-N-(3-(4-(cyclopropylamino)-7-methylquinazolin-6-yl)benzyl)quinoline-8-sulfonamide] | 31% | –
Cc1cc2ncnc(NC3CC3)c2cc1-c1cccc(CN(C(=O)c2ccccc2C(F)(F)F)C2CC2)c1 [Example 684, N-cyclopropyl-N-(3-(4-(cyclopropylamino)-7-methylquinazolin-6-yl)benzyl)-2-(trifluoromethyl)benzamide] | 96% | –
O=C(c1cccs1)N(Cc1cccc(-c2cc(F)c3ncnc(NC4CC4)c3c2)c1)C1CC1 [Example 685, N-cyclopropyl-N-(3-(4-(cyclopropylamino)-8-fluoroquinazolin-6-yl)benzyl)thiophene-2-carboxamide] | 81% | –
O=S(=O)(c1cccc(C(F)(F)F)c1)N(Cc1cccc(-c2cc(F)c3ncnc(NC4CC4)c3c2)c1)C1CC1 [Example 686, N-cyclopropyl-N-(3-(4-(cyclopropylamino)-8-fluoroquinazolin-6-yl)benzyl)-3-(trifluoromethyl)benzole sulfonamide] | – | % Inhibition of mGluR5 Receptor (pig) [^3H]-MPEP Bond at 10 μM: 68%
CNc1ncnc2ccc(-c3cccc(CN(C(=O)c4cccc(F)c4)c4ccccc4F)c3)cc12 [Example 687, 3-fluoro-N-(2-fluorophenyl)-N-(3-(4-(methylamino)quinazolin-6-yl)benzyl)benzamide] | 60% | –
COc1ccc(S(=O)(=O)N(Cc2cccc(-c3cc(F)c4ncnc(NC5CC5)c4c3)c2)C2CC2)cc1 [Example 694, N-cyclopropyl-N-(3-(4-(cyclopropylamino)-8-fluoroquinazolin-6-yl)benzyl)-4-methoxybenzole sulfonamide] | – | % Inhibition of mGluR5 Receptor (pig) [^3H]-MPEP Bond at 10 μM: 82%

The next lines start with results.

inhibition at 10 µM | SMILES | also measured
41% | COc1ccc(CNc2ncnc3ccc(-c4cccc(CN(C(=O)CN(C)C)C5CC5)c4)cc23)c(OC)c1 [Example 689, N-cyclopropyl-N-(3-(4-(2,4-dimethoxybenzylamino)quinazolin-6-yl)benzyl)-2-(dimethylamino)acetamide] | –
83% | Cc1cc2ncnc(NC3CC3)c2cc1-c1cccc(CN(C(=O)c2ccco2)C2CC2)c1 [Example 691, N-cyclopropyl-N-(3-(4-(cyclopropylamino)-7-methylquinazolin-6-yl)benzyl)furan-2-carboxamide] | –
67% | Cc1cc2ncnc(NC3CC3)c2cc1-c1cccc(CN(C(=O)c2cc(Cl)cc(Cl)c2)C2CC2)c1 [Example 692, 3,5-dichloro-N-cyclopropyl-N-(3-(4-(cyclopropylamino)-7-methylquinazolin-6-yl)benzyl)benzamide] | –
102% | O=C(c1ccccc1)N(Cc1cccc(-c2cc(F)c3ncnc(NC4CC4)c3c2)c1)C1CC1 [Example 693, N-cyclopropyl-N-(3-(4-(cyclopropylamino)-8-fluoroquinazolin-6-yl)benzyl)benzamide] | –
90% | Cc1cc2ncnc(NC3CC3)c2cc1-c1cccc(CN(C2CC2)S(C)(=O)=O)c1 [Example 697, N-cyclopropyl-N-(3-(4-(cyclopropylamino)-7-methylquinazolin-6-yl)benzyl)methane sulfonamide] | –
89% | Cc1cc2ncnc(NC3CC3)c2cc1-c1cccc(CN(C(=O)c2cccs2)C2CC2)c1 [Example 698, N-cyclopropyl-N-(3-(4-(cyclopropylamino)-7-methylquinazolin-6-yl)benzyl)thiophene-2-carboxamide] | –
90% | Cc1cc2ncnc(NC3CC3)c2cc1-c1cccc(CN(C(=O)c2ccccn2)C2CC2)c1 [Example 699, N-cyclopropyl-N-(3-(4-(cyclopropylamino)-7-methylquinazolin-6-yl)benzyl)picolinamide] | –
81% | COc1ccc(C(=O)N(Cc2cccc(-c3cc(F)c4ncnc(NC5CC5)c4c3)c2)C2CC2)cc1OC [Example 700, N-cyclopropyl-N-(3-(4-(cyclopropylamino)-8-fluoroquinazolin-6-yl)benzyl)-3,4-dimethoxybenzamide] | –
93% | O=S(=O)(c1cccs1)N(Cc1cccc(-c2cc(F)c3ncnc(NC4CC4)c3c2)c1)C1CC1 [Example 701, N-cyclopropyl-N-(3-(4-(cyclopropylamino)-8-fluoroquinazolin-6-yl)benzyl)thiophene-2-sulfonamide] | –
86% | Cc1cc2ncnc(NC3CC3)c2cc1-c1cccc(CN(C(=O)c2cccnc2)C2CC2)c1 [Example 702, N-cyclopropyl-N-(3-(4-(cyclopropylamino)-7-methylquinazolin-6-yl)benzyl)nicotinamide] | –
87% | O=C(CCc1ccccc1)N(Cc1cccc(-c2cc(F)c3ncnc(NC4CC4)c3c2)c1)C1CC1 [Example 703, N-cyclopropyl-N-(3-(4-(cyclopropylamino)-8-fluoroquinazolin-6-yl)benzyl)-3-phenylpropanamide] | –
